For one experiment, the target named is Small conductance calcium-activated potassium channel protein 2 (Rattus norvegicus, UniProt P70604). Kind of experiment: Inhibitory concentration of compound required for SKCa blocking action was assessed from its ability to inhibit After hyperpolarisation (AHP) in cultured rat sympathetic neurons. It counts as functional, cell-based, Sympathetic neuron.
Chain of Small conductance calcium-activated potassium channel protein 2 (P70604 whole entry): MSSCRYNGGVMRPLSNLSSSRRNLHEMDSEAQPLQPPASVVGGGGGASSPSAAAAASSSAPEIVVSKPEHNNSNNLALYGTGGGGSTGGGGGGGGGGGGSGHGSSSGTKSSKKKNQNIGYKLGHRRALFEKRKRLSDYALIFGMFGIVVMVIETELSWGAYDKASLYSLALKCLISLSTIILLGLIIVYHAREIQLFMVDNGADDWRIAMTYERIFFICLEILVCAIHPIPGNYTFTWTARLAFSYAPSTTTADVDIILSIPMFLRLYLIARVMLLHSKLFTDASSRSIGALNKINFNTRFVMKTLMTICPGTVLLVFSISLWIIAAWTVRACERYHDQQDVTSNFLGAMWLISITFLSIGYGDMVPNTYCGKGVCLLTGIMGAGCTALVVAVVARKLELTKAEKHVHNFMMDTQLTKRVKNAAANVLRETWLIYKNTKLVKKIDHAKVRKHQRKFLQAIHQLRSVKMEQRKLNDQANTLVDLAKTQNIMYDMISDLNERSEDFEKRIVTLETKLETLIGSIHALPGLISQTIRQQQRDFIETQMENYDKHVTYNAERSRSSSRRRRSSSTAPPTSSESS
`c1ccc2c(c1)c1cc[n+]2Cc2ccc(cc2)CCc2ccc(cc2)C[n+]2ccc(c3ccccc32)NCCCCCCCCCCN1`: the IC50 (commonly the concentration that inhibits the measured activity by half) worked out at 180 nM.
The same measure, in the same setting: with `Nc1cc[n+](Cc2ccc(-c3ccc(C[n+]4ccc(N)c5ccccc54)cc3)cc2)c2ccccc12` the figure was 380 nM; with `c1cc2cc(c1)-c1cccc(c1)C[n+]1ccc(c3ccccc31)NCCCCCCCCCCNc1cc[n+](c3ccccc13)C2`, 110 nM; with `c1ccc2c(c1)c1cc[n+]2Cc2ccc3c(c2)Cc2cc(ccc2-3)C[n+]2ccc(c3ccccc32)NCCCCCCCCCCN1`, 90 nM.
Take `Nc1cc[n+](Cc2ccc(/C=C\c3ccc(C[n+]4ccc(N)c5ccccc54)cc3)cc2)c2ccccc12`: the IC50 came out at 190 nM.
Consider `Nc1cc[n+](Cc2ccc(CCc3ccc(C[n+]4ccc(N)c5ccccc54)cc3)cc2)c2ccccc12`, for which the IC50 worked out at 410 nM.
On to `C1=C\c2ccc(cc2)C[n+]2ccc(c3ccccc32)NCCCCCCCCCCNc2cc[n+](c3ccccc23)Cc2ccc/1cc2`, for which the IC50 amounted to 150 nM.
Take `Nc1cc[n+](Cc2ccc(Cc3ccc(C[n+]4ccc(N)c5ccccc54)cc3)cc2)c2ccccc12`: the 50% inhibitory concentration (IC50) came to 450 nM.
Regarding `c1ccc2c(c1)c1cc[n+]2Cc2ccc(cc2)Cc2ccc(cc2)C[n+]2ccc(c3ccccc32)NCCCCCCCCCCN1` [UCL-1530], the IC50 amounted to 80 nM.
For the compound `Nc1cc[n+](Cc2ccc3c(c2)Cc2cc(C[n+]4ccc(N)c5ccccc54)ccc2-3)c2ccccc12`, the IC50 was found to be 310 nM.
Still for that read-out and setting: with `c1ccc2c(c1)c1cc[n+]2Cc2ccc(cc2)-c2ccc(cc2)C[n+]2ccc(c3ccccc32)NCCCCCCCCCCN1` the figure was 170 nM; with `c1ccc(C[n+]2ccc(NCCCCCCCCCCNc3cc[n+](Cc4ccccc4)c4ccccc34)c3ccccc32)cc1`, 700 nM; with `Nc1cc[n+](Cc2cccc(-c3cccc(C[n+]4ccc(N)c5ccccc54)c3)c2)c2ccccc12`, 290 nM.

A further experiment is filed under the species Rattus norvegicus. Kind of experiment: Equieffective molar ratio (EMR) is ratio of concentrations of compound and dequalinium causing 50% inhibition of the After hyperpolarisation (AHP) in rat sympathetic neurons. It counts as functional, Sympathetic neuron.
For the compound `c1ccc2c(c1)c1cc[n+]2Cc2ccc(cc2)CCc2ccc(cc2)C[n+]2ccc(c3ccccc32)NCCCCCCCCCCN1`, the EMR is listed as 0.58.
Regarding `Nc1cc[n+](Cc2ccc(-c3ccc(C[n+]4ccc(N)c5ccccc54)cc3)cc2)c2ccccc12`, the EMR turned out to be 0.4.
Regarding `c1cc2cc(c1)-c1cccc(c1)C[n+]1ccc(c3ccccc31)NCCCCCCCCCCNc1cc[n+](c3ccccc13)C2`, the EMR came to 0.28.
The same measure, in the same setting: with `c1ccc2c(c1)c1cc[n+]2Cc2ccc3c(c2)Cc2cc(ccc2-3)C[n+]2ccc(c3ccccc32)NCCCCCCCCCCN1` the figure was 0.12.
Take `Nc1cc[n+](Cc2ccc(/C=C\c3ccc(C[n+]4ccc(N)c5ccccc54)cc3)cc2)c2ccccc12`: the EMR was 0.24.
For `Nc1cc[n+](Cc2ccc(CCc3ccc(C[n+]4ccc(N)c5ccccc54)cc3)cc2)c2ccccc12`, the EMR came out at 0.71.
Same read-out and setting: for `C1=C\c2ccc(cc2)C[n+]2ccc(c3ccccc32)NCCCCCCCCCCNc2cc[n+](c3ccccc23)Cc2ccc/1cc2` the value was 0.28; for `Nc1cc[n+](Cc2ccc(Cc3ccc(C[n+]4ccc(N)c5ccccc54)cc3)cc2)c2ccccc12`, 0.39; for `c1ccc2c(c1)c1cc[n+]2Cc2ccc(cc2)Cc2ccc(cc2)C[n+]2ccc(c3ccccc32)NCCCCCCCCCCN1` [UCL-1530], 0.16.
Take `Nc1cc[n+](Cc2ccc3c(c2)Cc2cc(C[n+]4ccc(N)c5ccccc54)ccc2-3)c2ccccc12`: the EMR was 0.33.
Regarding `c1ccc2c(c1)c1cc[n+]2Cc2ccc(cc2)-c2ccc(cc2)C[n+]2ccc(c3ccccc32)NCCCCCCCCCCN1`, the EMR is 0.28.
Consider `c1ccc(C[n+]2ccc(NCCCCCCCCCCNc3cc[n+](Cc4ccccc4)c4ccccc34)c3ccccc32)cc1`, for which the EMR is listed as 1.
Still for that read-out and setting: with `Nc1cc[n+](Cc2cccc(-c3cccc(C[n+]4ccc(N)c5ccccc54)c3)c2)c2ccccc12` the figure was 0.55.

(Values after ChEMBL document CHEMBL1151049, “Bis-quinolinium cyclophanes: A novel class of potent blockers of the apamin-sensitive Ca2+-activated K+ channel” (Bioorg Med Chem Lett, 1997).)
